# Results published in publication PMC7481290, “Halogenation as a tool to tune antimicrobial activity of peptoids” (Scientific Reports, 2020).
# Non-standard residues stand in square brackets, D forms with d. Residues, ends and D or L forms follow the SMILES beside them. Gly(Nα-4-Cl-benzyl) = O=C(O)CNCc1ccc(Cl)cc1; N(4-Br-benzyl)Gly = O=C(O)CNCc1ccc(Br)cc1; Nspe(4-Br) = C[C@H](NCC(=O)O)c1ccc(Br)cc1; N(4-F-Bzl)Gly = O=C(O)CNCc1ccc(F)cc1; NBzl(4-I)Gly = O=C(O)CNCc1ccc(I)cc1; Nspe = C[C@H](NCC(=O)O)c1ccccc1; Nphe = O=C(O)CNCc1ccccc1; Nlys = NCCCCNCC(=O)O
# Legend:
# [1] = system: Methicillin-resistant S. epidermidis ET-024; format: cell-based, Staphylococcus epidermidis; conditions: Methicillin-resistant ET-024, 18 h
# Method: (§1) Bacterial growth inhibition was determined by using broth microdilution according to the Clinical Laboratory Standards Institute[43]. The antibacterial activity of peptoids was tested against S. aureus ATCC 25923, ATCC29213, and methicillin resistant S. aureus USA 300, methicillin resistant S. epidermidis ATCC 51625, a biofilm producing methicillin resistant S. epidermidis ET-024[44], P. aeruginosa Pa01 (H103), and E. coli ATCC 25922. Bacteria, grown on agar plates for 18 h at 37 °C, were diluted to ∼1 × 10^8 CFU/mL in Mueller‐Hinton Broth II (MHB II). Twofold serial dilutions of peptoids in MHB II were inoculated with bacteria to achieve a final concentration of 5 × 10^5 CFU/mL in polypropylene 96 U‐well microtiter plates (Corning 3,897; ThermoFisher Scientific, Roskilde), followed by incubation at 37 °C in ambient air for 18 h. The MIC values were determined as the lowest concentration showing no visible bacterial growth. Experiments were performed twice (in technical triplicates) on 2 different days.
# [2] = system: Methicillin-resistant S. epidermidis ATCC 51625; format: cell-based, Staphylococcus epidermidis; conditions: ATCC 51625, 18 h
# Method: as §1
# [3] = system: P. aeruginosa PA01 (H103); format: cell-based, Pseudomonas aeruginosa; conditions: H103, 18 h
# Method: as §1
# [4] = system: S. aureus ATCC 29213; format: cell-based, Staphylococcus aureus; conditions: ATCC 29213, 18 h
# Method: as §1
# [5] = system: Methicillin-resistant S. aureus USA 300; format: cell-based, Staphylococcus aureus; conditions: USA 300, 18 h
# Method: as §1
# [6] = system: S. aureus ATCC 25923; format: cell-based, Staphylococcus aureus; conditions: ATCC 25923, 18 h
# Method: as §1
# [7] = system: E. coli ATCC 25922; format: cell-based, Escherichia coli; conditions: ATCC 25922, 18 h
# Method: as §1
MIC MRSE^c [1] [µg/mL],MIC MRSE^d [2] [µg/mL],MIC PA^f [3] [µg/mL],MIC MRSA^b [5] [µg/mL],MIC SA^a [6] [µg/mL],MIC EC^e [7],Compound,Minimal inhibitory concentration MRSE^d [1] [µg/mL],Minimal inhibitory concentration MRSE^e [2] [µg/mL],Minimal inhibitory concentration PA^g [3] [µg/mL],Minimal inhibitory concentration SA^b [4] [µg/mL],Minimal inhibitory concentration MRSA^c [5] [µg/mL],Minimal inhibitory concentration SA^a [6] [µg/mL],Minimal inhibitory concentration EC^f [7] [µg/mL]
–,–,–,–,–,–,NCCCCNCC(=O)N(CC(=O)N(CCCCN)CC(=O)N(CC(=O)N(CCCCN)CC(=O)N(CC(N)=O)Cc1ccc(I)cc1)Cc1ccccc1)Cc1ccc(I)cc1 [Compound 9] (H-[Nlys][NBzl(4-I)Gly][Nlys][Nphe][Nlys][NBzl(4-I)Gly]-NH2),16,4,256,16,16,64,256
–,–,–,–,–,–,NCCCCNCC(=O)N(CC(=O)N(CCCCN)CC(=O)N(CC(=O)N(CCCCN)CC(=O)N(CC(=O)N(CCCCN)CC(=O)N(CC(N)=O)Cc1ccc(Br)cc1)Cc1ccccc1)Cc1ccc(Br)cc1)Cc1ccccc1 [Compound 17] (H-[Nlys][Nphe][Nlys][N(4-Br-benzyl)Gly][Nlys][Nphe][Nlys][N(4-Br-benzyl)Gly]-NH2),4,4,512,32,32,16,256
–,–,–,–,–,–,NCCCCNCC(=O)N(CC(=O)N(CCCCN)CC(=O)N(CC(=O)N(CCCCN)CC(=O)N(CC(=O)N(CCCCN)CC(=O)N(CC(=O)N(CCCCN)CC(=O)N(CC(=O)N(CCCCN)CC(=O)N(CC(N)=O)Cc1ccc(F)cc1)Cc1ccc(F)cc1)Cc1ccc(F)cc1)Cc1ccc(F)cc1)Cc1ccc(F)cc1)Cc1ccc(F)cc1 [Compound 29] (H-[Nlys][N(4-F-Bzl)Gly][Nlys][N(4-F-Bzl)Gly][Nlys][N(4-F-Bzl)Gly][Nlys][N(4-F-Bzl)Gly][Nlys][N(4-F-Bzl)Gly][Nlys][N(4-F-Bzl)Gly]-NH2),4 to 8,4,64,32,16,32,256
–,–,–,–,–,–,NCCCCNCC(=O)N(CC(=O)N(CCCCN)CC(=O)N(CC(=O)N(CCCCN)CC(=O)N(CC(N)=O)Cc1ccc(F)cc1)Cc1ccccc1)Cc1ccc(F)cc1 [Compound 6] (H-[Nlys][N(4-F-Bzl)Gly][Nlys][Nphe][Nlys][N(4-F-Bzl)Gly]-NH2),256,512,> 512,> 512,> 512,> 512,> 512
–,–,–,–,–,–,NCCCCNCC(=O)N(CC(=O)N(CCCCN)CC(=O)N(CC(=O)N(CCCCN)CC(=O)N(CC(=O)N(CCCCN)CC(=O)N(CC(N)=O)Cc1ccc(Br)cc1)Cc1ccc(Br)cc1)Cc1ccc(Br)cc1)Cc1ccc(Br)cc1 [Compound 13] (H-[Nlys][N(4-Br-benzyl)Gly][Nlys][N(4-Br-benzyl)Gly][Nlys][N(4-Br-benzyl)Gly][Nlys][N(4-Br-benzyl)Gly]-NH2),2,4,> 512,8,2,4,64
–,–,–,–,–,–,NCCCCNCC(=O)N(CC(=O)N(CCCCN)CC(=O)N(CC(=O)N(CCCCN)CC(=O)N(CC(=O)N(CCCCN)CC(=O)N(CC(N)=O)Cc1ccc(Cl)cc1)Cc1ccc(Cl)cc1)Cc1ccc(Cl)cc1)Cc1ccc(Cl)cc1 [Compound 12] (H-[Nlys][Gly(Nα-4-Cl-benzyl)][Nlys][Gly(Nα-4-Cl-benzyl)][Nlys][Gly(Nα-4-Cl-benzyl)][Nlys][Gly(Nα-4-Cl-benzyl)]-NH2),2,1,> 512,4 to 8,2,4,64
–,–,–,–,–,–,NCCCCNCC(=O)N(CC(=O)N(CCCCN)CC(=O)N(CC(=O)N(CCCCN)CC(=O)N(CC(=O)N(CCCCN)CC(=O)N(CC(N)=O)Cc1ccc(F)cc1)Cc1ccccc1)Cc1ccc(F)cc1)Cc1ccccc1 [Compound 15] (H-[Nlys][Nphe][Nlys][N(4-F-Bzl)Gly][Nlys][Nphe][Nlys][N(4-F-Bzl)Gly]-NH2),128,128,512,> 512,> 512,> 512,512
–,–,–,–,–,–,NCCCCNCC(=O)N(CC(=O)N(CCCCN)CC(=O)N(CC(=O)N(CCCCN)CC(=O)N(CC(=O)N(CCCCN)CC(=O)N(CC(=O)N(CCCCN)CC(=O)N(CC(=O)N(CCCCN)CC(=O)N(CC(N)=O)Cc1ccc(I)cc1)Cc1ccccc1)Cc1ccc(I)cc1)Cc1ccccc1)Cc1ccc(I)cc1)Cc1ccccc1 [Compound 36] (H-[Nlys][Nphe][Nlys][NBzl(4-I)Gly][Nlys][Nphe][Nlys][NBzl(4-I)Gly][Nlys][Nphe][Nlys][NBzl(4-I)Gly]-NH2),4,1,> 512,16,4,8,256
–,–,–,–,–,–,NCCCCNCC(=O)N(CC(=O)N(CCCCN)CC(=O)N(CC(=O)N(CCCCN)CC(=O)N(CC(=O)N(CCCCN)CC(=O)N(CC(N)=O)Cc1ccc(F)cc1)Cc1ccc(F)cc1)Cc1ccc(F)cc1)Cc1ccc(F)cc1 [Compound 11] (H-[Nlys][N(4-F-Bzl)Gly][Nlys][N(4-F-Bzl)Gly][Nlys][N(4-F-Bzl)Gly][Nlys][N(4-F-Bzl)Gly]-NH2),64,32,> 512,256,256,256,128
64,64,256,256,256,"1,024 μg/mL",C[C@@H](c1ccccc1)N(CC(N)=O)C(=O)CN(C(=O)CN(CCCCN)C(=O)CN(C(=O)CN(C(=O)CNCCCCN)[C@@H](C)c1ccccc1)[C@@H](C)c1ccccc1)[C@@H](C)c1ccccc1 [Pep1-6mer] (H-[Nlys][Nspe][Nspe][Nlys][Nspe][Nspe]-NH2),–,–,–,–,–,–,–
–,–,–,–,–,–,NCCCCNCC(=O)N(CC(=O)N(CCCCN)CC(=O)N(CC(=O)N(CCCCN)CC(=O)N(CC(N)=O)Cc1ccc(Cl)cc1)Cc1ccccc1)Cc1ccc(Cl)cc1 [Compound 7] (H-[Nlys][Gly(Nα-4-Cl-benzyl)][Nlys][Nphe][Nlys][Gly(Nα-4-Cl-benzyl)]-NH2),64,32,512,256,128,256,256
–,–,–,–,–,–,NCCCCNCC(=O)N(CC(=O)N(CCCCN)CC(=O)N(CC(=O)N(CCCCN)CC(=O)N(CC(N)=O)Cc1ccc(Cl)cc1)Cc1ccc(Cl)cc1)Cc1ccc(Cl)cc1 [Compound 3] (H-[Nlys][Gly(Nα-4-Cl-benzyl)][Nlys][Gly(Nα-4-Cl-benzyl)][Nlys][Gly(Nα-4-Cl-benzyl)]-NH2),16,8,512,64,16,64,512
16,8,64,32,64,> 64 µg/mL,C[C@@H](c1ccc(Br)cc1)N(CC(N)=O)C(=O)CN(C(=O)CN(CCCCN)C(=O)CN(C(=O)CN(C(=O)CNCCCCN)[C@@H](C)c1ccccc1)[C@@H](C)c1ccccc1)[C@@H](C)c1ccccc1 [Compound 49] (H-[Nlys][Nspe][Nspe][Nlys][Nspe][Nspe(4-Br)]-NH2),–,–,–,–,–,–,–
